# Measurements taken from patent US20190015385A1, “VITAMIN E PHOSPHATE OR ACETATE FOR USE IN THE TREATMENT AND PREVENTION OF BIOFILM INFECTIONS” (priority 2016, published 2019).
# Assays:
# S. aureus [1] = assay: Anti-biofilm activity on coated titanium disks, CFU count (Example 3); assay type: cell-based, Staphylococcus aureus; conditions: 48 hours, 5 mg/cm^2 coating
# Protocol: Coated and uncoated titanium disks were prepared as described above and utilized as the substrate for the formation of biofilms. Subsequently, an overnight bacteria culture was resuspended in Brain Heart Infusion Broth (BHI; Biomérieux) at a density of 1.5×10^8 CFU/ml for each strain, and 200 microliters of microbial suspension were inoculated in sterile polystyrene plates with 6 wells containing coated and uncoated disks and 4.8 ml of BHI. The plates were incubated at 37° C. in an aerobic atmosphere for 24 and 48 hours. The test was performed in triplicate for each strain.
# At the end of the biofilm incubation time, the disks were treated as described above and the detached cells of the biofilm were inoculated on Tryptic Soy Agar and incubated at 37° C. in an aerobic atmosphere for 24 hours for the CFU count.
# P. aeruginosa [2] = assay: MIC and MBC, broth microdilution (Example 3); assay type: cell-based, Pseudomonas aeruginosa
# Source text: (§1) This study used clinically relevant strains isolated from patients with prosthetic joint infections at the Microbiology Laboratory of the IRCCS Galeazzi Orthopaedic institute (Italy). In particular, the following were selected: strains of methicillin-resistant Staphylococcus epidermidis, of methicillin-resistant Staphylococcus aureus and of Pseudomonas aeruginosa. These strains were identified beforehand by means of biochemical assays (VITEK® 2 Compact, bioMérieux, Marcy l'Etoile, France) and stored at −80° C. prior to the analysis. Before beginning the study, all strains were screened to assess their ability to produce biofilms, according to the spectrophotometric assay described by Christensen et al. (J Clin Microbiol 1985; 22: 996-1006).
# (§2) The bacteriostatic and bactericidal activity of vitamin E acetate and vitamin E phosphate against the above-mentioned bacterial strains was assessed by measuring the minimum inhibitory concentration (MIC) and the minimum bactericidal concentration (MBC). MIC, defined as the lowest concentration capable of inhibiting bacterial growth, was determined using the broth microdilution method according to EUCAST guidelines (http://www.eucast.org/clinical_breakpoints/).
# (§3) In short, a suspension in Brain Heart Infusion Broth (BHI; Biomérieux, Marci l'Etoile, France) was prepared for each bacterial strain, with an optical density of 0.5 McFarland (1.5×10^8 CFU/ml). The P. acnes broth was supplemented with 5% defibrinated sheep blood (Liofilchem, Roseto degli Abruzzi, Italy). After a concentration of 10^5 UFC/ml was obtained using appropriate dilutions, each suspension was inoculated in a 96-well microtitre plate containing a two-fold serial dilution of vitamin E acetate (VitE-Ac) and vitamin E phosphate. The controls were performed by inoculating bacterial suspensions in BHI alone. […] After incubation at adequate conditions, MBC was read as the lowest concentration capable of killing 99.9% of the initial inoculum.
# S. aureus [3] = assay: Anti-adhesion activity on coated titanium disks, CFU count (Example 3); assay type: cell-based, Staphylococcus aureus
# Protocol: (§4) Sterile disks of sandblasted titanium with a diameter of 25 mm and a thickness of 5 mm (Adler Ortho, Cormano, Italy) were used as the substrate for the formation of biofilms. The disks were coated with sub-inhibitory concentrations of vitamin E acetate (5 mg/cm^2) or vitamin E phosphate (5 mg/cm^2). The concentrations were selected based on the MIC results. Uncoated disks were used as negative controls. The anti-adhesion activity of vitamin E was assessed against a representative strain for each species. An overnight bacteria culture was resuspended in Brain Heart Infusion Broth (BHI; Biomérieux) at a density of 1.0×10^7 CFU/ml for each strain, and 400 microliters of microbial suspension were inoculated on coated and uncoated disks. The test was performed in triplicate for each strain. After 30, 60 and 120 minutes of incubation, the disks were washed twice with a sterile saline solution to eliminate non-adherent bacteria. The disks were then immersed in 5 ml of a 0.1 w/v % dithiothreitol solution (DTT, Sigma-Aldrich, Milan, Italy) and mechanically stirred for 15 minutes at room temperature. Suitable dilutions of the fluids obtained were inoculated on Tryptic Soy Agar (TSA, Merck) and incubated at 37° C. in an aerobic atmosphere for 24 hours for the CFU count.
# S. epidermidis [4] = assay: MIC and MBC, broth microdilution (Example 3); assay type: cell-based, Staphylococcus epidermidis
# Source text: as §1, §2, §3
# S. aureus [5] = assay: MIC and MBC, broth microdilution (Example 3); assay type: cell-based, Staphylococcus aureus
# Source text: as §1, §2, §3
# S. epidermidis [6] = assay: Anti-adhesion activity on coated titanium disks, CFU count (Example 3); assay type: cell-based, Staphylococcus epidermidis
# Protocol: as §4
# P. acnes = assay: MIC and MBC, broth microdilution (Example 3); assay type: cell-based
# Protocol: as §3, with “MIC, defined as the lowest concentration capable of inhibiting bacterial growth, was determined using the broth microdilution method according to EUCAST guidelines (http://www.eucast.org/clinical_breakpoints/). In short,” for “In short,”, “Infusion Broth ([…], France) was” for “Infusion Broth (BHI; Biomérieux, Marci l'Etoile, France) was”, “sheep blood ([…] Abruzzi, Italy).” for “sheep blood (Liofilchem, Roseto degli Abruzzi, Italy).”
# P. aeruginosa [7] = assay: Anti-adhesion activity on coated titanium disks, CFU count (Example 3); assay type: cell-based, Pseudomonas aeruginosa
# Protocol: as §4
# [8] = tested on: S. aureus, S. epidermidis, E. coli, P. aeruginosa and C. albicans (all the strains tested); assay: Antimicrobial activity, MIC by broth microdilution (Example 1); assay type: cell-based; conditions: mean over all strains tested; VitE diluted in hyaluronic acid; read after 24 hours at 37° C.
# Protocol: The microbial strains utilized in this study were isolated from clinical samples collected from bone and soft tissue infections. In particular, strains of S. aureus, S. epidermidis, E. coli, P. aeruginosa and C. albicans were utilized. They were identified beforehand by means of biochemical assays and examined to assess their ability to produce biofilms, according to the spectrometric assay described by Christensen et al. (1985). The microorganisms were stored at −80° C. prior to the analysis. Prior to use, the strains were thawed and cultivated in an appropriate culture medium at 37° C. for 24 h. Antimicrobial activity was assessed by determining the minimum inhibitory concentration (MIC). MIC, defined as the lowest concentration of an antimicrobial substance that inhibits the visible growth of a microorganism, was determined using the broth microdilution method, in accordance with the guidelines of the European Committee on Antimicrobial Susceptibility Testing (EUCAST). […] VitE was diluted in hyaluronic acid (HA) at various concentrations, for which the growth checks were performed by inoculating the microbial suspension in BHI+HA. […] The assay was conducted in duplicate and repeated twice.
# rats or mice = conditions: rat or mouse; cited from earlier work
# [9] = 5 mg/cm^2 coating, 30, 60 and 120 minutes
# [10] = 5 mg/cm^2 coating, range over 30, 60 and 120 minutes
compound,measurement,setting,value
"Cc1c(C)c2c(c(C)c1OP(=O)([O-])[O-])CC[C@@](C)(CCC[C@H](C)CCC[C@H](C)CCCC(C)C)O2.[Na+].[Na+] [Vitamin E phosphate, α-tocopherol phosphate disodium salt]",biofilm reduction with respect to the controls (in words),S. aureus [1],significantly inhibited
same,bactericidal at the concentrations tested (in words),P. aeruginosa [2]; P. aeruginosa,not against P. aeruginosa
same,MIC range,"P. aeruginosa [2]; P. aeruginosa strains, 24 hours",100 to 200 mg/mL
same,MBC range,"P. aeruginosa [2]; P. aeruginosa strains, kills 99.9% of the initial inoculum",>200 mg/mL
same,decrease in adhesion (in words),S. aureus [3]; [9],significant decrease
same,inhibition of adhesion with respect to the control,S. aureus [3]; [10],60-78%
same,bactericidal at the concentrations tested (in words),S. epidermidis [4]; S. epidermidis,bactericidal
same,MIC range,"S. epidermidis [4]; S. epidermidis strains, 24 hours",3.13 to 100 mg/mL
same,MBC range,"S. epidermidis [4]; S. epidermidis strains, kills 99.9% of the initial inoculum",25 to 100 mg/mL
same,bactericidal at the concentrations tested (in words),S. aureus [5]; S. aureus,bactericidal
same,MIC range,"S. aureus [5]; S. aureus strains, 24 hours",25 to 100 mg/mL
same,MBC range,"S. aureus [5]; S. aureus strains, kills 99.9% of the initial inoculum",25 to 200 mg/mL
same,decrease in adhesion (in words),S. epidermidis [6]; [9],significant decrease
same,inhibition of adhesion with respect to the control,S. epidermidis [6]; [10],84-95%
same,bactericidal at the concentrations tested (in words),P. acnes,bactericidal
same,MIC range,"P. acnes; 48 hours, broth with 5% defibrinated sheep blood",1.56 to 6.25 mg/mL
same,MBC range,P. acnes; kills 99.9% of the initial inoculum,31.25 to 50 mg/mL
same,decrease in adhesion (in words),P. aeruginosa [7]; [9],"significant decrease for all the strains tested, with the exception of the last time period tested for P. aeruginosa"
same,inhibition of adhesion with respect to the control,P. aeruginosa [7]; [10],7-65%
vitamin E,mean MIC value,[8],2.5%
same,LD50,rats or mice,4000 mg of vitamin E/kg
